Measurements: the supplement of paper PMC10307832

Assays:
Test in all cases: relative viability (nuclei count vs DMSO), 5 days (fraction); higher = more cells survive
[1] = compound: CN(NC(=O)CC(=O)NN(C)C(=S)c1ccccc1)C(=S)c1ccccc1 [Elesclomol] + O=C(c1cc(Cc2n[nH]c(=O)c3ccccc23)ccc1F)N1CCN(C(=O)C2CC2)CC1 [Olaparib] (partner 8 µM)
Outline: (§1)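 Cells from lung cancer lines were seeded into 1536-well plates and, one day later, dosed by pin tool. Treatments were either a single drug or a fixed dose of an anchor drug with five library-drug doses (not always all listed) in √10 steps. After 5 days, nuclei were stained in a one-step fixation (final 0.05% Triton X-100, 1% formaldehyde, 1 ug/ml Hoechst) and counted on 4× images, and relative viability is the treated-to-vehicle nuclei ratio, as the median of duplicate plates.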

[2] = compound: CN(NC(=O)CC(=O)NN(C)C(=S)c1ccccc1)C(=S)c1ccccc1 [Elesclomol] + CS(=O)(=O)CCNCc1ccc(-c2ccc3ncnc(Nc4ccc(OCc5cccc(F)c5)c(Cl)c4)c3c2)o1 [Lapatinib] (partner 2 µM)
Outline: as §1

[3] = compound: CN(NC(=O)CC(=O)NN(C)C(=S)c1ccccc1)C(=S)c1ccccc1 [Elesclomol] + N=C(N)NC(=N)NCCc1ccccc1 [Phenformin] (partner 250 µM)
Outline: as §1

[4] = compound: CN(NC(=O)CC(=O)NN(C)C(=S)c1ccccc1)C(=S)c1ccccc1 [Elesclomol] + Nc1nc2[nH]cc(CCc3ccc(C(=O)N[C@@H](CCC(=O)O)C(=O)O)cc3)c2c(=O)[nH]1 [Pemetrexed] (partner 0.2 µM)
Outline: as §1

[5] = compound: CN(NC(=O)CC(=O)NN(C)C(=S)c1ccccc1)C(=S)c1ccccc1 [Elesclomol] + CC(=O)c1c(C)c2cnc(Nc3ccc(N4CCNCC4)cn3)nc2n(C2CCCC2)c1=O [Palbociclib] (partner 0.5 µM)
Outline: as §1

In the case of HCC-366, the relative viability ([1]; first compound 0.003162 µM) is reported as 0.369, the relative viability ([1]; first compound 0.01 µM) is reported as 0.31 and the relative viability ([1]; first compound 0.03162 µM) is reported as 0.108. For the same cell line, the relative viability ([1]; first compound 0.1 µM) was 0.0162, the relative viability ([2]; first compound 0.003162 µM) was 1.07 and the relative viability ([2]; first compound 0.01 µM) was 1.06. For the same cell line, the relative viability ([2]; first compound 0.03162 µM) was 0.563, the relative viability ([2]; first compound 0.1 µM) was 0.015 and the relative viability ([3]; first compound 0.003162 µM) was 0.611. It also gave a relative viability ([3]; first compound 0.01 µM) of 0.562, a relative viability ([3]; first compound 0.03162 µM) of 0.436 and a relative viability ([3]; first compound 0.1 µM) of 0.0349. For the same cell line, the relative viability ([4]; first compound 0.003162 µM) was 0.167, the relative viability ([4]; first compound 0.01 µM) was 0.156 and the relative viability ([4]; first compound 0.03162 µM) was 0.116. The relative viability ([4]; first compound 0.1 µM) was 0.0342, the relative viability ([5]; first compound 0.003162 µM) was 0.393 and the relative viability ([5]; first compound 0.01 µM) was 0.393. It also gave a relative viability ([5]; first compound 0.03162 µM) of 0.0812 and a relative viability ([5]; first compound 0.1 µM) of 0.0176.
Work on HCC-827 yielded a relative viability ([1]; first compound 0.003162 µM) of 0.58, a relative viability ([1]; first compound 0.01 µM) of 0.522 and a relative viability ([1]; first compound 0.03162 µM) of 0.672. It also gave a relative viability ([1]; first compound 0.1 µM) of 0.475, a relative viability ([2]; first compound 0.003162 µM) of 0.178 and a relative viability ([2]; first compound 0.01 µM) of 0.206. For the same cell line, the relative viability ([2]; first compound 0.03162 µM) was 0.194, the relative viability ([2]; first compound 0.1 µM) was 0.188 and the relative viability ([3]; first compound 0.003162 µM) was 0.382. The relative viability ([3]; first compound 0.01 µM) was 0.402, the relative viability ([3]; first compound 0.03162 µM) was 0.371 and the relative viability ([3]; first compound 0.1 µM) was 0.393. For the same cell line, the relative viability ([4]; first compound 0.003162 µM) was 0.275, the relative viability ([4]; first compound 0.01 µM) was 0.272 and the relative viability ([4]; first compound 0.03162 µM) was 0.258. It also gave a relative viability ([4]; first compound 0.1 µM) of 0.246, a relative viability ([5]; first compound 0.003162 µM) of 0.471 and a relative viability ([5]; first compound 0.01 µM) of 0.436. The relative viability ([5]; first compound 0.03162 µM) was 0.428 and the relative viability ([5]; first compound 0.1 µM) was 0.626.
HOP-62 was tested, and the relative viability ([1]; first compound 0.003162 µM) was 0.487, the relative viability ([1]; first compound 0.01 µM) was 0.191 and the relative viability ([1]; first compound 0.03162 µM) was 0.0744. It also gave a relative viability ([1]; first compound 0.1 µM) of 0.08, a relative viability ([2]; first compound 0.003162 µM) of 1.17 and a relative viability ([2]; first compound 0.01 µM) of 0.872. It also gave a relative viability ([2]; first compound 0.03162 µM) of 0.811, a relative viability ([2]; first compound 0.1 µM) of 0.251 and a relative viability ([3]; first compound 0.003162 µM) of 0.629. For the same cell line, the relative viability ([3]; first compound 0.01 µM) was 0.508, the relative viability ([3]; first compound 0.03162 µM) was 0.353 and the relative viability ([3]; first compound 0.1 µM) was 0.176. For the same cell line, the relative viability ([4]; first compound 0.003162 µM) was 0.369, the relative viability ([4]; first compound 0.01 µM) was 0.333 and the relative viability ([4]; first compound 0.03162 µM) was 0.224. It also gave a relative viability ([4]; first compound 0.1 µM) of 0.113, a relative viability ([5]; first compound 0.003162 µM) of 0.461 and a relative viability ([5]; first compound 0.01 µM) of 0.333. It also gave a relative viability ([5]; first compound 0.03162 µM) of 0.305 and a relative viability ([5]; first compound 0.1 µM) of 0.144.
Work on IA-LM yielded a relative viability ([1]; first compound 0.003162 µM) of 0.892, a relative viability ([1]; first compound 0.01 µM) of 0.526 and a relative viability ([1]; first compound 0.03162 µM) of 0.181. The relative viability ([1]; first compound 0.1 µM) was 0.115, the relative viability ([2]; first compound 0.003162 µM) was 0.658 and the relative viability ([2]; first compound 0.01 µM) was 0.201. For the same cell line, the relative viability ([2]; first compound 0.03162 µM) was 0.121 and the relative viability ([2]; first compound 0.1 µM) was 0.0621.
For LC-2-ad, the relative viability ([1]; first compound 0.003162 µM) was 0.722, the relative viability ([1]; first compound 0.01 µM) was 0.622 and the relative viability ([1]; first compound 0.03162 µM) was 0.277. For the same cell line, the relative viability ([1]; first compound 0.1 µM) was 0.197, the relative viability ([2]; first compound 0.003162 µM) was 0.876 and the relative viability ([2]; first compound 0.01 µM) was 0.334. For the same cell line, the relative viability ([2]; first compound 0.03162 µM) was 0.111, the relative viability ([2]; first compound 0.1 µM) was 0.0969 and the relative viability ([3]; first compound 0.003162 µM) was 0.514. The relative viability ([3]; first compound 0.01 µM) was 0.271, the relative viability ([3]; first compound 0.03162 µM) was 0.269 and the relative viability ([3]; first compound 0.1 µM) was 0.331. For the same cell line, the relative viability ([4]; first compound 0.003162 µM) was 0.294, the relative viability ([4]; first compound 0.01 µM) was 0.269 and the relative viability ([4]; first compound 0.03162 µM) was 0.236. It also gave a relative viability ([4]; first compound 0.1 µM) of 0.201, a relative viability ([5]; first compound 0.003162 µM) of 0.482 and a relative viability ([5]; first compound 0.01 µM) of 0.409. The relative viability ([5]; first compound 0.03162 µM) was 0.223 and the relative viability ([5]; first compound 0.1 µM) was 0.193.
LCLC-97TM1 gave a relative viability ([1]; first compound 0.003162 µM) of 0.402, a relative viability ([1]; first compound 0.01 µM) of 0.295 and a relative viability ([1]; first compound 0.03162 µM) of 0.379. The relative viability ([1]; first compound 0.1 µM) was 0.0862, the relative viability ([2]; first compound 0.003162 µM) was 0.575 and the relative viability ([2]; first compound 0.01 µM) was 0.299. For the same cell line, the relative viability ([2]; first compound 0.03162 µM) was 0.687, the relative viability ([2]; first compound 0.1 µM) was 0.0906 and the relative viability ([3]; first compound 0.003162 µM) was 0.369. The relative viability ([3]; first compound 0.01 µM) was 0.168, the relative viability ([3]; first compound 0.03162 µM) was 0.422 and the relative viability ([3]; first compound 0.1 µM) was 0.387. For the same cell line, the relative viability ([4]; first compound 0.003162 µM) was 0.159, the relative viability ([4]; first compound 0.01 µM) was 0.133 and the relative viability ([4]; first compound 0.03162 µM) was 0.164. The relative viability ([4]; first compound 0.1 µM) was 0.0782, the relative viability ([5]; first compound 0.003162 µM) was 0.189 and the relative viability ([5]; first compound 0.01 µM) was 0.193. The relative viability ([5]; first compound 0.03162 µM) was 0.277 and the relative viability ([5]; first compound 0.1 µM) was 0.129.
Work on LCLC-103H yielded a relative viability ([1]; first compound 0.003162 µM) of 0.724, a relative viability ([1]; first compound 0.01 µM) of 0.737 and a relative viability ([1]; first compound 0.03162 µM) of 0.815. It also gave a relative viability ([1]; first compound 0.1 µM) of 0.639, a relative viability ([3]; first compound 0.003162 µM) of 0.355 and a relative viability ([3]; first compound 0.01 µM) of 0.275. For the same cell line, the relative viability ([3]; first compound 0.03162 µM) was 0.384, the relative viability ([3]; first compound 0.1 µM) was 0.292 and the relative viability ([4]; first compound 0.003162 µM) was 0.476. For the same cell line, the relative viability ([4]; first compound 0.01 µM) was 0.483, the relative viability ([4]; first compound 0.03162 µM) was 0.467 and the relative viability ([4]; first compound 0.1 µM) was 0.431. For the same cell line, the relative viability ([5]; first compound 0.003162 µM) was 0.482, the relative viability ([5]; first compound 0.01 µM) was 0.481 and the relative viability ([5]; first compound 0.03162 µM) was 0.471. The relative viability ([5]; first compound 0.1 µM) was 0.517.
For LK-2, the relative viability ([1]; first compound 0.003162 µM) was 0.65, the relative viability ([1]; first compound 0.01 µM) was 0.503 and the relative viability ([1]; first compound 0.03162 µM) was 0.332. For the same cell line, the relative viability ([1]; first compound 0.1 µM) was 0.0869, the relative viability ([2]; first compound 0.003162 µM) was 0.698 and the relative viability ([2]; first compound 0.01 µM) was 0.22. For the same cell line, the relative viability ([2]; first compound 0.03162 µM) was 0.17, the relative viability ([2]; first compound 0.1 µM) was 0.0799 and the relative viability ([3]; first compound 0.003162 µM) was 0.438. The relative viability ([3]; first compound 0.01 µM) was 0.389, the relative viability ([3]; first compound 0.03162 µM) was 0.353 and the relative viability ([3]; first compound 0.1 µM) was 0.141. The relative viability ([4]; first compound 0.01 µM) was 0.289, the relative viability ([4]; first compound 0.03162 µM) was 0.276 and the relative viability ([4]; first compound 0.1 µM) was 0.128. The relative viability ([5]; first compound 0.01 µM) was 0.717, the relative viability ([5]; first compound 0.03162 µM) was 0.695 and the relative viability ([5]; first compound 0.1 µM) was 0.0756.
LOU-NH91 showed a relative viability ([1]; first compound 0.003162 µM) of 0.898, a relative viability ([1]; first compound 0.01 µM) of 0.825 and a relative viability ([1]; first compound 0.03162 µM) of 0.829. It also gave a relative viability ([1]; first compound 0.1 µM) of 0.606, a relative viability ([2]; first compound 0.003162 µM) of 0.733 and a relative viability ([2]; first compound 0.01 µM) of 0.669. The relative viability ([2]; first compound 0.03162 µM) was 0.574, the relative viability ([2]; first compound 0.1 µM) was 0.478 and the relative viability ([3]; first compound 0.003162 µM) was 0.754. The relative viability ([3]; first compound 0.01 µM) was 0.571, the relative viability ([3]; first compound 0.03162 µM) was 0.419 and the relative viability ([3]; first compound 0.1 µM) was 0.439. For the same cell line, the relative viability ([4]; first compound 0.003162 µM) was 0.401, the relative viability ([4]; first compound 0.01 µM) was 0.404 and the relative viability ([4]; first compound 0.03162 µM) was 0.487. For the same cell line, the relative viability ([4]; first compound 0.1 µM) was 0.375, the relative viability ([5]; first compound 0.003162 µM) was 0.518 and the relative viability ([5]; first compound 0.01 µM) was 0.566. For the same cell line, the relative viability ([5]; first compound 0.03162 µM) was 0.535 and the relative viability ([5]; first compound 0.1 µM) was 0.508.
